Where a name gives a salt, the structure may show the parent alone.
How the values were obtained:
HCT116 [1] = test: efficacy (fitted maximal change in viability relative to DMSO control); higher = less cytotoxic (negative = loss of viability); conditions: 48 h
HCT116 [2] = test: AC50 cell viability (CellTiter-Glo); higher = less potent; conditions: 48 h
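Throughout, for AC50 cell viability (CellTiter-Glo): HCT116 colorectal carcinoma cells screened at five concentrations per compound, luminescent viability scaled between DMSO wells and empty wells on each plate, curves fitted per compound.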
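Throughout, for efficacy (fitted maximal change in viability relative to DMSO control): Luminescence-based viability readout, five doses per compound, normalized against on-plate DMSO and empty-well controls, followed by dose-response curve fitting for every drug.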

Row | SMILES | efficacy (HCT116 [1]) | AC50 cell viability (HCT116 [2])
1 | Cc1cc(C)c(C/N=C(\O)c2cc(-c3ccc(N4CCN(C)CC4)nc3)cc3c2c(C)cn3C(C)C)c(O)n1 [GSK-503] | -103% | 23.5 µM
2 | O=C1NC(=O)/C(=C/c2ccc3nccc(-c4ccncc4)c3c2)S1 [GSK-615] | -82.3% | 0.934 µM
3 | CC(C)(C)OC(=O)CN(Cc1ccc(Cl)cc1)Cc1ccc([N+](=O)[O-])s1 [GSK-4112] | -40.6% | 20.9 µM
4 | COc1ccccc1C(=O)Nc1cc2c(cc1N1CCNC[C@H]1C)n(C)c(=O)n2C [GSK-6853] | -63.8% | 16.6 µM
5 | CCOC(=O)CCNc1cc(N2CCc3ccccc3CC2)nc(-c2ccccn2)n1 [GSK-J4] | -90.6% | 2.95 µM
6 | COc1ccc(COc2ccc(Cc3cnc(N)nc3N)cc2OC)cc1 [GW-2580] | -96.7% | 14.8 µM
7 | Cc1ccc(C(=O)Nc2ccc(CN3CCN(C)CC3)c(C(F)(F)F)c2)cc1C#Cc1cnc2[nH]ncc2c1 [GZD-824] | -121% | 0.934 µM
8 | C[C@]\12CC[C@H](O)CC1=C/CC3C2CC[C@@]\4(C)C3C\C=C4[N]5C=NC6=C5C=CC=C6 (some centres undefined) [Galeterone] | -43.8% | 5.9 µM
9 | Cc1cc(Nc2cc(CN3CCOCC3)c3nc(C)c(Cc4ccc(Cl)cc4F)n3n2)[nH]n1 [Gandotinib] | -110% | 5.9 µM
10 | CC(C)C1=C(O)C=C(O)C(=C1)C/2=N/NC(=O)N2C3=CC4=C(C=C3)[N](C)C=C4 [Ganetespib (STA-9090)] | -62.3% | 0.0742 µM
11 | CCNCc1nc2c(N)nc3ccccc3c2n1CC(C)(C)O [Gardiquimod] | -62% | 16.6 µM
12 | CN(C)C1CCN(C(=O)c2ccc(NC(=O)Nc3ccc(-c4nc(N5CCOCC5)nc(N5CCOCC5)n4)cc3)cc2)CC1 [Gedatolisib] | -69.6% | 0.148 µM
13 | NC/1=N/C(=O)N(/C=C1)[C@@H]2O[C@H](CO)[C@@H](O)C2(F)F [Gemcitabine] | -71.9% | 0.0263 µM
14 | CCc1nc(C(N)=O)c(Nc2ccc(N3CCC(N4CCN(C)CC4)CC3)c(OC)c2)nc1NC1CCOCC1 [Gilteritinib] | -65.1% | 1.66 µM
15 | CCN(CC)Cc1ccc2cc(COC(=O)Nc3ccc(C(=O)NO)cc3)ccc2c1 [Givinostat hydrochloride] | -88.8% | 0.263 µM
16 | COCCNCc1ccc(-c2cc3nccc(Oc4ccc(NC(=S)NC(=O)Cc5ccc(F)cc5)cc4F)c3s2)nc1 [Glesatinib] | -80.1% | 6.61 µM
17 | Cc1cncc2cccc([S+](=O)([O-])N3CCCN(C(=O)CN)C[C@@H]3C)c12 [Glycyl-H-1152] | -35.8% | 5.9 µM
18 | Cn1c2ccccc2c2c3c(c4c5ccccc5n(CCC#N)c4c21)CNC3=O [Go-6976] | -63% | 18.6 µM
19 | COC1=CC=C2[N](CCCN(C)C)C=C(C2=C1)C/3=C(/C(=O)NC3=O)C4=C[NH]C5=C4C=CC=C5 [Go-6983] | -111% | 10.5 µM

Row | SMILES | efficacy (HCT116 [1]) | AC50 cell viability (HCT116 [2])
20 | CN1CCN(C2CCN(C(=O)Nc3cc(Oc4ccc(NC(=O)C5(C(=O)Nc6ccc(F)cc6)CC5)c(F)c4)ccn3)CC2)CC1 [Golvatinib] | -93.6% | 14.8 µM
21 | O=[S+]([O-])(NCCNC/C=C/c1ccc(Br)cc1)c1cccc2cnccc12 [H-89] | -88.2% | 18.6 µM
22 | O=C1S/C(=C\c2ccc(OCc3cccc(B(O)O)c3)cc2)C(=O)N1Cc1ccc(F)cc1 [HA-130] | -41.3% | 18.6 µM
23 | ONC(=O)C1=CC=C(C=C1)C/2=N/C3=CC=CC=C3OC4=C2C=CC=C4 [HDACi-01] | -85.9% | 2.95 µM
24 | O=C(NO)c1cnc(N2C[C@H]3C[C@@H]2CN3c2cc(C(F)(F)F)ccn2)nc1 [HDACi-02] | -86.6% | 1.48 µM
25 | CCN1CCN(Cc2ccc(NC(=O)c3ccc(C)c(/C=C/c4cnc5[nH]ccc5c4OC)c3)cc2C(F)(F)F)CC1 [HG-6-64-1] | -96.2% | 2.95 µM
26 | COCCOC(=O)C/1=C(C)/NC/2=C(C1C3=CC=CC(=C3)O)/C(=O)CC(C2)C4=C(OC)C=CC=C4 (centres undefined) [HPI-1] | -73.6% | 14.8 µM
27 | COc1cccc(-c2cc(F)ccc2C2Cc3nc(N)nc(C)c3C(=O)N2)n1 (centres undefined) [HSP-990] | -64.3% | 0.0525 µM
28 | CCCCN(CCCC)CCC(O)c1cc2c(Cl)cc(Cl)cc2c2cc(C(F)(F)F)ccc12.Cl (centres undefined) [Halofantrine] | -66.6% | 20.9 µM
29 | CC[S+](=O)([O-])Nc1ccc2c(c1)/C(=C(/Nc1ccc(CN3CCCCC3)cc1)c1ccccc1)C(=O)N2 [Hesperadin] | -90.4% | 0.235 µM
30 | CNC1CCC(N(Cc2cccc(-c3ccncc3)c2)C(=O)c2sc3c(F)ccc(F)c3c2Cl)CC1 (centres undefined) [Hh-Ag1.5] | -115% | 13.2 µM
31 | COc1cc(O)c2c(c1)C1OC1C[C@H](O)[C@H](O)C(=O)/C=C\C[C@H](C)OC2=O (some centres undefined) [Hypothemycin] | -72% | 3.72 µM
32 | COc1cc2c(cc1-c1c(C)noc1C)ncc1[nH]c(=O)n([C@H](C)c3ccccn3)c12 [I-BET151] | -77.4% | 1.32 µM
33 | CCNC(=O)C[C@@H]1\N=C(C2=CC=C(Cl)C=C2)/C3=C(C=CC(=C3)OC)[N]4C(=NN=C14)C [I-BET762] | -67% | 2.63 µM
34 | O=C1[C@H](Cc2ccc(O)cc2)N2C(=O)CCN(C(=O)NCc3ccccc3)[C@H]2CN1Cc1cccc2ccccc12 [ICG-001] | -67.2% | 2.09 µM
35 | N#Cc1c(C2CCNCC2)cc(-c2c(O)cccc2OCC2CC2)nc1N [IKK-2 Inhibitor VIII] | -89.2% | 10.5 µM
36 | O=C(c1ccc(Nc2nccc(-c3cc4ccccc4s3)n2)cc1)N1CCC(N2CCCC2)CC1 [IKK-16] | -106% | 6.61 µM
37 | O=C(Nc1cc(C(F)(F)F)cc(C(F)(F)F)c1)c1cc(Cl)ccc1O [IMD-0354] | -88.7% | 0.833 µM
38 | CC(C)n1nc(-c2ccc3oc(N)nc3c2)c2c(N)ncnc21 [INK-128] | -100% | 0.372 µM

Row | SMILES | efficacy (HCT116 [1]) | AC50 cell viability (HCT116 [2])
39 | Nc1ccc(C(=O)c2cc3c(ccc4ccccc43)[nH]2)cc1 [IPFK2] | -102% | 4.81 µM
40 | CC(NC1=NC=NC2=C1[NH]C=N2)\C3=C\C4=C(C(=CC=C4)Cl)C(=O)N3C5=CC=CC=C5 (centres undefined) [IPI-145] | -58.5% | 14.8 µM
41 | C[C@H](NC(=O)C1=C2N=CC=C[N]2N=C1N)\C3=C\C4=CC=CC(=C4C(=O)N3C5=CC=CC=C5)C#CC6=C[N](C)N=C6 [IPI-549] | -43.1% | 8.11 µM
42 | O=C(Nc1nc2ccccc2n1CCN1CCOCC1)c1cccc([N+](=O)[O-])c1 [IRAK-1-4 Inhibitor I] | -64.8% | 14.8 µM
43 | CC(C)(C)OC(=O)Nc1ccc(-c2cc(C(=O)NCCCCCCC(=O)NO)no2)cc1 [ISOX] | -91.5% | 1.86 µM
44 | CCOC(=O)\C1=C(/C)N\C2=C(C1C3=CC=C(C=C3)C4=CC=CC=C4)\C(=O)CC(C)(C)C2 (centres undefined) [ITD-1] | -67.8% | 18.6 µM
45 | COc1cc(C)c(Sc2cnc(NC(=O)c3ccc(CNC(C)C(C)C)cc3)s2)cc1C(=O)N1CCN(C(C)=O)CC1 (centres undefined) [ITK Inhibitor] | -132% | 14.8 µM
46 | COc1ccc([S+](=O)([O-])N(C(C)=O)c2ccccc2/C=C/c2cc[n+]([O-])cc2)cc1 [IVX-214] | -59.1% | 4.17 µM
47 | CC(C)(NC(=O)O[C@@H]1CN2CCC1CC2)c1csc(-c2ccc(F)cc2)n1 [Ibiglustat] | -43.3% | 18.6 µM
48 | CC(=O)[C@]1(O)Cc2c(O)c3c(c(O)c2[C@@H](O[C@H]2C[C@H](N)[C@H](O)[C@H](C)O2)C1)C(=O)c1ccccc1C3=O [Idarubicin hydrochloride] | -83% | 0.661 µM
49 | COc1cc(C(=O)O)ccc1NC(=O)[C@@H]1N[C@@H](CC(C)(C)C)[C@](C#N)(c2ccc(Cl)cc2F)[C@H]1c1cccc(Cl)c1F [Idasanutlin] | -67.9% | 1.66 µM
50 | COC\1=C(/OC)C(=O)\C(=C(C)/C1=O)CCCCCCCCCCO [Idebenone] | -54.9% | 18.6 µM
51 | OC[C@H]1O[C@H](C[C@@H]1O)N2\C=C(\I)C(=O)NC2=O [Idoxuridine] | -38.3% | 16.6 µM
52 | OC1=CC=C(C=C1)C/2=C/C3=C(OC2)C=C(O)C=C3 [Idronoxil] | -73.9% | 3.72 µM
53 | Cc1ccc(NC(=O)c2ccc(CN3CCN(C)CC3)cc2)cc1Nc1nccc(-c2cccnc2)n1 [Imatinib] | -85% | 16.6 µM
54 | NC(=O)C/1=C(O)/[C@]2(O)[C@@H](C[C@@H]\3CC4=C(C(=CC=C4)O)\C(=C3C2=O)O)CC1=O [Incyclinide] | -69.4% | 16.6 µM
55 | O=C(Nc1ccncc1)C(=O)c1cn(Cc2ccc(Cl)cc2)c2ccccc12 [Indibulin] | -70.9% | 0.295 µM
56 | COC1=C(OC)C=C2C(=C1)C(=O)N(CCC[N]3C=CN=C3)\C4=C2\C(=O)C5=CC6=C(OCO6)C=C45 [Indimitecan hydrochloride (LMP-776)] | -63.4% | 5.9 µM
57 | N[S+](=O)([O-])c1ccc([S+](=O)([O-])Nc2cccc3c(Cl)c[nH]c23)cc1 [Indisulam (E7070)] | -57.8% | 1.86 µM

Reference: the supplement of paper PMC10290057
